# Measured values as given in US6485754B1, “Bone cement paste containing an antibiotic” (Merck Patent GmbH, priority 1997, dated 2002).
# Experiment: Elution of antibiotics from cured α-BSM cement ball into phosphate buffer
# Format: physicochemical
# Conditions: other material used as carrier instead of the hydroxyapatite-like cement pastes
# Procedure: 1 g of cement powder (α-BSM, WO 96/36562) and 0.7 ml of water in which 42 mg of gentamycin sulfate have been dissolved are mixed with one another. A paste is obtained by this means, which is shaped to give a ball of about 1 cm diameter. This ball is added at 37° C. to 20 ml of phosphate buffer according to Sörensen (pH 7.4). After approximately 10 minutes, the cement ball cures. At defined times, samples are taken from the buffer solution and the concentration of the antibiotic is determined microbiologically or chromatographically according to standard methods. The determined antibiotic concentrations in μg/ml correspond to the concentrations released in the buffer.
# Analogously to Example 1, a previously cured ball of agar/gentamycin sulfate is eluted and the corresponding concentrations are measured.
# Analogously to Example 1, an α-BSM/cefazolin ball is eluted and the corresponding concentrations are measured.
# Analogously to Example 1, an α-BSM/netilmycin sulfate ball is eluted and the corresponding concentrations are measured.
substance,measurement,value
gentamycin sulfate,release characteristics of the antibiotic (in words),released just as rapidly
